Measured values: patent US20110312962A1, “NOVEL 2-MORPHOLINO-3-AMIDO-PYRIDINE DERIVATIVES AND THEIR MEDICAL USE” (NEUROSEARCH A/S, priority 2008, published 2011)

Target: T1, human Kv7.2+3 (Homo sapiens, UniProt O43525+O43526)
T1 construct: expressed in transfected cells; host or cells: HEK293
Assay: FLIPR-based characterization of Kv7.2+3 modulators (thallium influx, BTC-AM)
Type: cell-based
Settings: HEK293 cells over-expressing human Kv7.2+3; for EC50: Tl+ influx FLIPR, 50% of channel activity compared to retigabine control responses; for Emax: maximal response relative to the reference (retigabine) response, read-out: Efficacy
Protocol: This experiment determines the ability of a test compound to modulate the activity of Kv7.2+3 channels heterologously expressed in human HEK293 cells. The ability is determined relative to retigabine. The activity is determined using a standard thallium (I) sensitive assay, e.g. using a fluorometric method in a Fluorescent Image Plate Reader (FLIPR) as described below in more detail.
Full concentration/response curves are generated and EC50 values are calculated based on max values. EC50 values (Effective Concentration) represent the concentration of the test substance, at which 50% of the channel activity is obtained when compared to retigabine control responses. Maximal response determined relative to the reference (retigabine) response is calculated.
Human HEK293 cells over-expressing human Kv7.2+3 are grown in culture medium (DMEM supplemented with 10% foetal bovine serum), in polystyrene culture flasks ([…]) in a humidified atmosphere of 5% CO2 in air, at 37° C. Cell confluence should be 80-90% on day of plating. Cells are rinsed with 4 ml of PBS (phosphate buffered saline) and incubated 2 min with 1 ml of Trypsin-EDTA. After addition of 25 ml of culture medium cells are re-suspended by trituration with a 25 ml pipette.
The cells are seeded at a density of ˜3×10^6 cells/ml (25 μl/well) in black-walled, clear bottom, 384-well plates pre-treated with 0.01 g/l poly-D-lysin (20 μl/well for 30 min). Plated cells were allowed to proliferate for 24 h before loading with dye.
BTC-AM (50 mg, Invitrogen) is added 25.5 μl DMSO. The BTC-AM stock solution (2 mM) is diluted to a final concentration of 2 μM in Cl^− free assay buffer (in mM: 140 Na^+-gluconate, 2.5 K^+-gluconate, 6 Ca2^+-gluconate, 1 Mg^2+ gluconate, 5 glucose, 10 HEPES, pH 7.3) containing 2 μM ouabain, 2 mM amaranth and 1 mM tartrazine.
The culture medium is aspirated from the wells, the cells are washed thrice in Cl^− free assay buffer, and 25 μl of the BTC-AM loading solution is added to each well. The cells are incubated at 37° C. for 60 min.
After the loading period, the TI^+-sensitive BTC fluorescence signal is measured over time using a FLIPR.
• Temperature: Room temp. • First addition: 12 μl test or control compound after 15 sec at a rate of 30 μl/sec and starting height of 20 μl • Second addition: 12 μl stimulus buffer (Cl^− free assay buffer supplemented with 1 mM TI2SO4, 5 mM K2SO4 as well as the quenchers amaranth (2 mM) and tartrazine (1 mM)) is added after an additional 3 minutes at a rate of 30 μl/sec and starting height of 30 μl • Reading intervals: First sequence—3 sec×5, 2 sec×24 and 5 sec×25 Second sequence—1 sec×5, 2 sec×24 and 5 sec×36 Addition plates (compound plate and stimulus plate) are placed in positions 2 and 3, respectively. Cell plates are placed in position 1 and run using the “KCNQ (two additions)” program. FLIPR will then take the appropriate measurements in accordance with the interval settings above. Fluorescence obtained after stimulation is corrected for the mean basal fluorescence (in Cl^− free assay buffer).
Full concentration/response curves are generated and EC50 values (“Effective Concentration”; the concentration at which 50% of the channel activity is obtained when compared to retigabine control responses) are calculated based on peak values. Maxi-mal response determined relative to the reference (retigabine) response is calculated.

| SMILES | EC50 [nM] | Emax [%] |
| --- | --- | --- |
| CC(C)(Nc1ccc(NC(=O)Cc2cc(F)cc(F)c2)c(N2CCOCC2)n1)c1ccc(F)cc1 [Compound 2.2, 2-(3,5-Difluoro-phenyl)-N-{6-[1-(4-fluoro-phenyl)-1-methyl-ethylamino]-2-morpholin-4-yl-pyridin-3-yl}-acetamide] | 5400 | 86 |
| Cc1ccccc1C(=O)Nc1ccc(NCc2ccc(F)cc2)nc1N1CCOCC1 [Compound 2.3, N-[6-(4-Fluoro-benzylamino)-2-morpholin-4-yl-pyridin-3-yl]-2-methyl-benzamide] | 10000 | 52 |
| COc1ccc(CC(=O)Nc2ccc(NCc3ccc(F)cc3)nc2N2CCOCC2)cc1 [Compound 2.5, N-[6-(4-Fluoro-benzylamino)-2-morpholin-4-yl-pyridin-3-yl]-2-(4-methoxy-phenyl)-acetamide] | 840 | 98 |
| O=C(Cc1ccc(Cl)cc1Cl)Nc1ccc(NCc2ccc(F)cc2)nc1N1CCOCC1 [Compound 2.7] | 4100 | 47 |
| O=C(CSc1ccc(F)cc1)Nc1ccc(NCc2ccc(F)cc2)nc1N1CCOCC1 [Compound 2.12] | 2700 | 87 |
| O=C(COc1cccc(F)c1)Nc1ccc(NCc2ccc(F)cc2)nc1N1CCOCC1 [Compound 2.13, 2-(3-fluorophenoxy)-N-[6-[(4-fluorophenyl)-methylamino]-2-morpholino-3-pyridyl]acetamide] | 6600 | 86 |
| O=C(Cc1ccc(Cl)nc1)Nc1ccc(NCc2ccc(F)cc2)nc1N1CCOCC1 [Compound 2.14, 2-(6-chloro-3-pyridyl)-N-[6-[(4-fluorophenyl)-methylamino]-2-morpholino-3-pyridyl]acetamide] | 900 | 80 |
| O=C(Nc1ccc(NCc2ccc(F)cc2)nc1N1CCOCC1)c1cccnc1F [Compound 2.15, 2-fluoro-N-[6-[(4-fluorophenyl)-methylamino]-2-morpholino-3-pyridyl]-pyridine-3-carboxamide] | 11000 | 28 |

Compounds with a lower EC50, results first:

| EC50 [nM] | Emax [%] | SMILES |
| --- | --- | --- |
| 130 | 100 | O=C(Cc1cc(F)cc(F)c1)Nc1ccc(NCc2ccc(F)cc2)nc1N1CCOCC1 [Compound 2.1, 2-(3,5-Difluoro-phenyl)-N-[6-(4-fluoro-benzylamino)-2-morpholin-4-yl-pyridin-3-yl]-acetamide] |
| 780 | 104 | O=C(Cc1ccc2c(c1)OCO2)Nc1ccc(NCc2ccc(F)cc2)nc1N1CCOCC1 [Compound 2.4, 2-Benzo[1,3]dioxol-5-yl-N-[6-(4-fluoro-benzylamino)-2-morpholin-4-yl-pyridin-3-yl]-acetamide] |
| 330 | 88 | COc1cccc(CC(=O)Nc2ccc(NCc3ccc(F)cc3)nc2N2CCOCC2)c1 [Compound 2.6, N-[6-(4-Fluoro-benzylamino)-2-morpholin-4-yl-pyridin-3-yl]-2-(3-methoxy-phenyl)-acetamide] |
| 590 | 87 | O=C(Cc1cccc(C(F)(F)F)c1)Nc1ccc(NCc2ccc(F)cc2)nc1N1CCOCC1 [Compound 2.8, N-[6-(4-Fluoro-benzylamino)-2-morpholin-4-yl-pyridin-3-yl]-2-(3-trifluoromethyl-phenyl)-acetamide] |
| 210 | 86 | O=C(Cc1ccccc1F)Nc1ccc(NCc2ccc(F)cc2)nc1N1CCOCC1 [Compound 2.9, N-[6-(4-Fluoro-benzylamino)-2-morpholin-4-yl-pyridin-3-yl]-2-(2-fluoro-phenyl)-acetamide] |
| 35 | 93 | O=C(Cc1cccc(F)c1)Nc1ccc(NCc2ccc(F)cc2)nc1N1CCOCC1 [Compound 2.10, N-[6-(4-Fluoro-benzylamino)-2-morpholin-4-yl-pyridin-3-yl]-2-(3-fluoro-phenyl)-acetamide] |
| 230 | 88 | O=C(Cc1ccc(Cl)cc1)Nc1ccc(NCc2ccc(F)cc2)nc1N1CCOCC1 [Compound 2.11] |
